Experimental data from patent US9516880B2, “Herbicidal and fungicidal 5-oxy-substituted 3-phenylisoxazoline-5-carboxamides and 5-oxy-substituted 3-phenylisoxazoline-5-thioamides” (BAYER CROPSCIENCE AG, priority 2012, dated 2016).

Tests used:
[1] = system: Septoria tritici; experiment: In vivo protective test, Septoria tritici (blotch in wheat); conditions: application rate 500 ppm, wheat plants, evaluation 21-28 days after inoculation, 0% = control, 100% = no infection
Description: To produce an appropriate active ingredient formulation, active ingredient is mixed with acetone/Tween/DMSO and diluted with water to the appropriate concentration. Wheat plants (cultivar: Scipion) are cultivated in 50/50 peat/pozzolan substrate at 22° C. (12 h)/20° C. (12 h) and sprayed at the 1-leaf stage (height 10 cm) with the active ingredient formulation specified above. Control plants are sprayed with an aqueous solution without added active ingredient. After 24 hours, the plants are sprayed with a spore suspension of cryopreserved Septoria tritici (500 000 spores/ml).

[2] = system: Sphaerotheca fuliginea; experiment: In vivo protective test, Sphaerotheca fuliginea (powdery mildew in gherkins); conditions: application rate 500 ppm, gherkin plants, evaluation 12 days after inoculation, 0% = control, 100% = no infection
Description: Example: In vivo protective test, Sphaerotheca fuliginea (powdery mildew in gherkins) To produce an appropriate active ingredient formulation, active ingredient is mixed with acetone/Tween/DMSO and diluted with water to the appropriate concentration. Gherkin plants (cultivar: Vert petit de Paris) are cultivated in 50/50 peat/pozzolan substrate at 24° C. and sprayed at the Z11 cotyledon stage with the active ingredient formulation specified above. Plants which serve as a control are treated with an aqueous solution without active ingredient. After 24 hours, the plants are sprayed with a spore suspension of Sphaerotheca fuliginea (100 000 spores/ml). The spores are collected from infected plants. The inoculated plants are placed at 20/25° C. and at 60/70% relative humidity.

[3] = system: Botrytis cinerea; experiment: In vivo protective test, Botrytis cinerea (gray mold in gherkins); conditions: application rate 500 ppm, gherkin plants, evaluation 4-5 days after infection, 0% = control, 100% = no infection
Description: To produce an appropriate active ingredient formulation, active ingredient is mixed with acetone/Tween/DMSO and diluted with water to the appropriate concentration. Gherkin plants (Vert petit de Paris) are cultivated in 50/50 peat/pozzolan substrate at 24° C. and sprayed at the Z11 stage with the active ingredient formulation specified above. Plants which serve as a control are treated with an aqueous solution without active ingredient. After 24 hours, the plants are sprayed with a spore suspension of Botrytis cinerea (50 000 spores/ml). The spores are suspended in a nutrient solution consisting of 10 g/L PDB, 50 g/L D-Fructose, 2 g/L NH4NO3 and 1 g/L KH2PO4. The inoculated gherkin plants are incubated at 17° C. and at 80% relative air humidity.

[4] = system: Phytophthora infestans; format: in vivo; conditions: application rate 500 ppm; protective, tomato plants; evaluation 5 days after infection; 0% = control, 100% = no infection
[5] = system: Venturia inaequalis; experiment: Venturia test (apple)/protective; conditions: Venturia inaequalis on apple, protective, active ingredient concentration 100 ppm, 10 days after inoculation
Description: • Solvents: 24.5 parts by weight of acetone • 24.5 parts by weight of dimethylacetamide • Emulsifier: 1 part by weight of alkylaryl polyglycol ether
To produce an appropriate active ingredient formulation, 1 part by weight of active ingredient is mixed with the stated amounts of solvent and emulsifier, and the concentrate is diluted with water to the desired concentration.
To test for protective efficacy, young plants are sprayed with the active ingredient formulation at the stated application rate. After the spray coating has dried on, the plants are inoculated with an aqueous conidia suspension of the apple scab pathogen Venturia inaequalis and then remain in an incubation cabin at about 20° C. and 100% relative air humidity for 1 day.
The plants are then placed in a greenhouse at about 21° C. and a relative air humidity of about 90%.
Evaluation follows 10 days after the inoculation.

[6] = system: Plasmopara viticola; experiment: Plasmopara test (grapevine)/protective; format: in vivo; conditions: Plasmopara viticola on grapevine, protective, active ingredient concentration 100 ppm, 6 days after inoculation
Description: The plants are then moistened and placed in an incubation cabin for 1 day.

SMILES	Efficacy [%] [1]	Efficacy [%] [2]	Efficacy [%] [3]	Efficacy [%] [4]	Efficacy [%] [5]	Efficacy [%] [6]
COC1(C(N)=O)CC(c2cc(Br)cc(OC(F)(F)F)c2)=NO1 (centres unmarked) [Compound 1.32-1]	98%					
COC1(C(=O)NC2CC2)CC(c2cc(Br)cc(C(F)(F)F)c2)=NO1 (centres unmarked) [Compound 1.33-60]	100%	100%	100%			
CCOC(=O)CCNC(=O)C1(OC)CC(c2cc(F)cc(OC)c2)=NO1 (centres unmarked) [Compound 1.16-94]			75%			
COC1(C(=O)NCc2ccncc2)CC(c2cc(Cl)cc(Cl)c2)=NO1 (centres unmarked) [Compound 1.20-135]	100%	98%	100%			
CCn1cc(CNC(=O)C2(OC)CC(c3cc(F)cc(C(F)(F)F)c3)=NO2)cn1 (centres unmarked) [Compound 1.18-206]		95%	100%	90%		
COC1(C(=O)NCc2cccnc2Cl)CC(c2cc(F)cc(F)c2)=NO1 (centres unmarked) [Compound 1.11-238]	100%	83%	100%	99%		
COc1cccc(C2=NOC(OC)(C(=O)NCc3ccc(Cl)nc3)C2)c1 (centres unmarked) [Compound 1.7-110]	100%		100%			
COC1(C(=O)NC(C)C)CC(c2cc(Cl)cc(Cl)c2)=NO1 (centres unmarked) [Compound 1.20-5]					96%	99%
CCOC1(C(=O)NCc2cnn(CC)c2)CC(c2cc(F)cc(F)c2)=NO1 (centres unmarked) [Compound 2.11-206]	83%			100%		
COCC(C)NC(=O)C1(OC)CC(c2cc(Cl)cc(Cl)c2)=NO1 (single isomer, unassigned) [1.20-19 D2]	100%	100%	100%	100%		
CCn1cc(CNC(=O)C2(OC)CC(c3cccc(Cl)c3)=NO2)cn1 (centres unmarked) [Compound 1.3-206]	100%	94%				
COC1(C(=O)NC2(C#N)CC2)CC(c2cc(Cl)cc(Cl)c2)=NO1 (centres unmarked) [Compound 1.20-64]	100%	98%	70%	100%		
CCOC(=O)CC(C)NC(=O)C1(OC)CC(c2cc(F)cc(OC)c2)=NO1 (centres unmarked) [Compound 1.16-96]	88%	78%	85%			
COC1(C(=O)NC2CC2)CC(c2cc(Br)cc(OC(F)(F)F)c2)=NO1 (centres unmarked) [Compound 1.32-60]	100%	100%	100%			
COC1(C(=O)NCc2nc(C)cc(C)n2)CC(c2cc(F)cc(F)c2)=NO1 (centres unmarked) [Compound 1.11-189]				100%		
COCC(C)NC(=O)C1(OC)CC(c2cc(F)cc(F)c2)=NO1 (single isomer, unassigned) [1.11-19 D1]	100%	100%	100%	100%		
COC1(C(=O)NCc2ccc(Cl)nc2)CC(c2cc(F)cc(F)c2)=NO1 (centres unmarked) [Compound 1.11-110]	100%	78%	90%	100%		
CCn1cc(CNC(=O)C2(OC)CC(c3cc(Br)cc(OC(F)(F)F)c3)=NO2)cn1 (centres unmarked) [Compound 1.32-206]	100%		96%			
CCn1cc(CNC(=O)C2(OC)CC(c3cc(C)cc(F)c3)=NO2)cn1 (centres unmarked) [Compound 1.14-206]	100%	98%	100%	100%		
COC1(C(=O)NCc2ccc(Cl)nc2)CC(c2cc(Cl)cc(Cl)c2)=NO1 (centres unmarked) [Compound 1.20-110]	100%		83%			
C=CCNC(=O)C1(OC)CC(c2cc(Cl)cc(OC(F)(F)F)c2)=NO1 (centres unmarked) [Compound 1.25-16]	97%	95%	100%			
CCOC(=O)CC(C)NC(=O)C1(OC)CC(c2cccc(CC)c2)=NO1 (centres unmarked) [Compound 1.6-96]	75%		95%			
COC1(C(=O)NCc2ccnc(Cl)c2)CC(c2cc(C)cc(F)c2)=NO1 (centres unmarked) [Compound 1.14-136]			88%			
COc1cc(F)cc(C2=NOC(OC)(C(=O)NCc3ccc(Cl)nc3)C2)c1 (centres unmarked) [Compound 1.16-110]	100%	89%	100%			
COC(=O)CCCNC(=O)C1(OC)CC(c2cc(Br)cc(C(F)(F)F)c2)=NO1 (centres unmarked) [Compound 1.33-102]	100%	100%				
